Experiments:
aorta rings = experiment: Vasorelaxant effect in vitro (phenylephrine-contracted aorta rings); settings: Oryctolagus cuniculus, rabbit aorta rings, organ bath, phenylephrine contraction; read-out: IC50 (concentration needed to reduce the phenylephrine contraction by 50%)
Description: B-1. Vasorelaxant Effect In Vitro
Rabbits are stunned by a blow to the neck and exsanguinated. The aorta is removed, freed from adhering tissue and divided into rings of a width of 1.5 mm. The rings are placed individually under an initial tension in 5 ml organ baths with Krebs-Henseleit solution which is at 37° C., is gassed with carbogen and has the following composition (in each case mM): sodium chloride: 119; potassium chloride: 4.8; calcium chloride dihydrate: 1; magnesium sulphate heptahydrate: 1.4; potassium dihydrogenphosphate: 1.2; sodium bicarbonate: 25; glucose: 10. The contractile force is determined with Statham UC2 cells, amplified and digitalized using A/D transducers (DAS-1802 HC, Keithley Instruments Munich), and recorded in parallel on linear recorders.
To produce a contraction, phenylephrine is added to the bath cumulatively in increasing concentration. After several control cycles, the substance to be investigated is added in each further run in increasing dosage in each case, and the height of the contraction achieved is compared with the height of the contraction reached in the last preceding run. This is used to calculate the concentration needed to reduce the magnitude of the control value by 50% (IC50 value). The standard administration volume is 5 μl; the DMSO content in the bath solution corresponds to 0.1%.

[1] = tested on: recombinant guanylate cyclase reporter cell line; experiment: Effect on a recombinant guanylate cyclase reporter cell line; type: cell-based
Description: B-2. Effect on a Recombinant Guanylate Cyclase Reporter Cell Line
The cellular activity of the compounds according to the invention is determined using a recombinant guanylate cyclase reporter cell line, as described in F. Wunder et al., Anal. Biochem. 339, 104-112 (2005).

[2] = molecular target: human phosphodiesterase 5 (PDE 5) (Homo sapiens (Human), UniProt O76074); experiment: Inhibition of human phosphodiesterase 5 (PDE 5), SPA assay; type: biochemical; settings: PDE 5 preparation from human platelets, [8-3H] cGMP substrate
Summary of the method: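 Enzyme partially purified from human platelets by Mono Q chromatography; [8-3H]cGMP substrate (0.025 μCi per well), enzyme diluted to keep conversion below 70%. Compounds 4 μM to 0.0018 μM final, 60 min at room temperature in Tris pH 7.5/MgCl2/EDTA; yttrium SPA bead read-out; IC50 from concentration–inhibition plot.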

Row | Compound | IC50 (aorta rings) [nM] | IC50 [2] [nM] | MEC (minimum effective concentration) [1] [nM]
1 | Cc1ncc(-c2nc(-c3nn(Cc4ccccc4F)c4ncccc34)nc3c2C(C)(C)C(=O)N3)s1 [Example 35, 2-[1-(2-Fluorobenzyl)-1H-pyrazolo[3,4-b]pyridin-3-yl]-5,5-dimethyl-4-(2-methyl-1,3-thiazol-5-yl)-5,7-dihydro-6H-pyrrolo[2,3-d]pyrimidin-6-one] | 496 | 120 | 30
2 | Cc1nc(C)c(-c2nc(-c3nn(Cc4ccccc4F)c4ncccc34)nc3c2C(C)(C)C(=O)N3)s1 [Example 36, 4-(2,4-Dimethyl-1,3-thiazol-5-yl)-2-[1-(2-fluorobenzyl)-1H-pyrazolo[3,4-b]pyridin-3-yl]-5,5-dimethyl-5,7-dihydro-6H-pyrrolo[2,3-d]pyrimidin-6-one] | 218 | 1100 | 100
3 | Cc1nc(C(C)C)sc1-c1nc(-c2nn(Cc3ccccc3F)c3ncccc23)nc2c1C(C)(C)C(=O)N2 [Example 37, 2-[1-(2-Fluorobenzyl)-1H-pyrazolo[3,4-b]pyridin-3-yl]-4-(2-isopropyl-4-methyl-1,3-thiazol-5-yl)-5,5-dimethyl-5,7-dihydro-6H-pyrrolo[2,3-d]pyrimidin-6-one] | 1430 | 500 | 1000
4 | CC(C)n1ccc(-c2nc(-c3nn(Cc4ccccc4F)c4ncccc34)nc3c2C(C)(C)C(=O)N3)n1 [Example 39, 2-[1-(2-Fluorobenzyl)-1H-pyrazolo[3,4-b]pyridin-3-yl]-4-(1-isopropyl-1H-pyrazol-3-yl)-5,5-dimethyl-5,7-dihydro-6H-pyrrolo[2,3-d]pyrimidin-6-one] | 225 | 240 | 30
5 | Cn1nc(C(F)(F)F)cc1-c1nc(-c2nn(Cc3ccccc3F)c3ncccc23)nc2c1C(C)(C)C(=O)N2 [Example 41, 2-[1-(2-Fluorobenzyl)-1H-pyrazolo[3,4-b]pyridin-3-yl]-5,5-dimethyl-4-[1-methyl-3-(trifluoromethyl)-1H-pyrazol-5-yl]-5,7-dihydro-6H-pyrrolo[2,3-d]pyrimidin-6-one] | 4210 | 1600 | 300
6 | Cn1c(C#N)ccc1-c1nc(-c2nn(Cc3ccccc3F)c3ncccc23)nc2c1C(C)(C)C(=O)N2 [Example 42, 5-{2-[1-(2-Fluorobenzyl)-1H-pyrazolo[3,4-b]pyridin-3-yl]-5,5-dimethyl-6-oxo-6,7-dihydro-5H-pyrrolo[2,3-d]pyrimidin-4-yl}-1-methyl-1H-pyrrole-2-carbonitrile] | 728 | 1300 | 10
7 | CC1(C)C(=O)Nc2nc(-c3nn(Cc4ccccc4F)c4ncc(F)cc34)nc(CNCC(F)(F)F)c21 [Example 57, 2-[5-Fluoro-1-(2-fluorobenzyl)-1H-pyrazolo[3,4-b]pyridin-3-yl]-5,5-dimethyl-4-{[(2,2,2-trifluoroethyl)amino]methyl}-5,7-dihydro-6H-pyrrolo[2,3-d]pyrimidin-6-one] | 422 | 320 | 30
8 | CC1(C)C(=O)Nc2nc(-c3nn(Cc4ccccc4F)c4ncc(F)cc34)nc(CCC(F)(F)F)c21 [Example 58, 2-[5-Fluoro-1-(2-fluorobenzyl)-1H-pyrazolo[3,4-b]pyridin-3-yl]-5,5-dimethyl-4-(3,3,3-trifluoropropyl)-5,7-dihydro-6H-pyrrolo[2,3-d]pyrimidin-6-one] | 9800 | 660 | 300

The remaining compounds from weak to strong by IC50 (aorta rings), led by results:

Row | IC50 (aorta rings) [nM] | IC50 [2] [nM] | Compound | MEC (minimum effective concentration) [1] [nM]
9 | 501 | 870 | CC1(C)C(=O)Nc2nc(-c3nn(Cc4ccccc4F)c4ncc(F)cc34)nc(CN)c21.O=CO [Example 44, 4-(Aminomethyl)-2-[5-fluoro-1-(2-fluorobenzyl)-1H-pyrazolo[3,4-b]pyridin-3-yl]-5,5-dimethyl-5,7-dihydro-6H-pyrrolo[2,3-d]pyrimidin-6-one formate] | 30
10 | 227 | 250 | Cn1nccc1-c1nc(-c2nn(Cc3ccccc3F)c3ncccc23)nc2c1C(C)(C)C(=O)N2 [Example 40, 2-[1-(2-Fluorobenzyl)-1H-pyrazolo[3,4-b]pyridin-3-yl]-5,5-dimethyl-4-(1-methyl-1H-pyrazol-5-yl)-5,7-dihydro-6H-pyrrolo[2,3-d]pyrimidin-6-one] | 30
11 | 91 | 690 | Cc1cc(-c2nc(-c3nn(Cc4ccccc4F)c4ncccc34)nc3c2C(C)(C)C(=O)N3)n(C)n1 [Example 38, 4-(1,3-Dimethyl-1H-pyrazol-5-yl)-2-[1-(2-fluorobenzyl)-1H-pyrazolo[3,4-b]pyridin-3-yl]-5,5-dimethyl-5,7-dihydro-6H-pyrrolo[2,3-d]pyrimidin-6-one] | 30
12 | 71 | 120 | COCCCc1nc(-c2nn(Cc3ccccc3F)c3ncccc23)nc2c1C(C)(C)C(=O)N2 [Example 46, 2-[1-(2-Fluorobenzyl)-1H-pyrazolo[3,4-b]pyridin-3-yl]-4-(3-methoxypropyl)-5,5-dimethyl-5,7-dihydro-6H-pyrrolo[2,3-d]pyrimidin-6-one] | 100

Source: patent US9505786B2, “Substituted annulated triazines and use thereof” (BAYER INTELLECTUAL PROPERTY GMBH, priority 2012, dated 2016)
